Data: article PMC9318802, “Optimization of 2-Aminoquinazolin-4-(3H)-one Derivatives as Potent Inhibitors of SARS-CoV-2: Improved Synthesis and Pharmacokinetic Properties” (Pharmaceuticals, 2022)
“Also recorded” adds a separate entry of the source. Like-named read-outs stand apart in the source and are kept apart here.

Key:
[1] = system: SARS-CoV-2; test: Anti-SARS-CoV-2 immunofluorescence assay in Vero cells; format: cell-based; conditions: for IC50: Severe acute respiratory syndrome coronavirus 2, immunofluorescence, at least two independent experiments
[2] = rats, oral, 10 mg/kg; ref previously reported; cited from earlier work
[3] = in vitro; conditions: African green monkey
[4] = system: Vero cells; conditions: Vero cell assay, previously reported; cited from earlier work
[5] = system: SARS-CoV-2 spike pseudo-typed lentivirus; test: microbe, parasite or virus in culture; format: cell-based; conditions: Severe acute respiratory syndrome coronavirus 2, NCI-H1299, 48 h; read-out: IC50 (SARS-CoV-2 spike pseudo-typed virus entry)
[6] = biological target: hERG K+ channel (Homo sapiens, UniProt Q12809); test: cell-based
[7] = In vivo oral pharmacokinetics in Sprague Dawley rats; conditions: rat, blood, male Sprague Dawley rats, 10 mg/kg; for Cmax / Tmax / half-life: n = 3; for AUC(0-t): n = 3, read-out: AUC24h
Procedure: Compounds 2a–c were selected for in vivo pharmacokinetic studies based on their ClogP and selectivity index (SI) values. Each compound was administered orally at 10 mg/kg to three Sprague Dawley rats (Figure 2). […] The lipophilic properties and the small size of the fluorine moieties likely enhance the absorption of compound 2b.
Figure 2 Pharmacokinetic evaluation of compounds 1a, 2a, 2b, and 2c. Each compound was orally administrated to male Sprague Dawley rats (n = 3) at 10 mg/kg. TEXT PRINTED IN THE PICTURE: 1a: Tmax (h): 2.50; Cmax (μg/mL): 0.87; T1/2 (h): 5.65; AUC24h (μg·h/mL): 6.62 | 2a: Tmax (h): 4.67; Cmax (μg/mL): 1.85; T1/2 (h): 4.95; AUC24h (μg·h/mL): 24.31 | 2b: Tmax (h): 4.00; Cmax (μg/mL): 5.56; T1/2 (h): 1.96; AUC24h (μg·h/mL): 41.57 | 2c: Tmax (h): 3.33; Cmax (μg/mL): 1.96; T1/2 (h): 6.69; AUC24h (μg·h/mL): 10.77

[8] = system: NIH 3T3, mouse embryonic fibroblast cells; test: EZ-Cytox cell viability assay, NIH 3T3; conditions: read-out: Cytotoxicity (CC50) NIH 3T3; EZ-Cytox, 24 h
[9] = EZ-Cytox cell viability assay, NIH 3T3; conditions: mouse, Cytotoxicity (CC50) NIH 3T3, EZ-Cytox
[10] = in vitro; conditions: Chinese hamster, Cytotoxicity (CC50) CHO-K1, EZ-Cytox, 24 h
[11] = In vivo single-dose toxicity in male Sprague Dawley rats; parameters: species or system rat; conditions: for Clinical signs: animals with liquid feces: n = 4, recovered by day 4; for Body weight change: recovered on day 14
Procedure: After single administration using 55% PEG200 in distilled water as a vehicle, each group of four rats was monitored for 15 days. […] Therefore, the approximate lethal dose of compound 2b in this study was estimated to be more than 500 mg/kg.
Figure 3 Body weight changes in male rats (n = 4) treated with compound 2b in a single-dose toxicity study. ** p < 0.01, compared to the control at the same time point (Dunnett’s test).

[12] = EZ-Cytox cell viability assay, HFL-1; conditions: human, Cytotoxicity (CC50) HFL-1, EZ-Cytox
[13] = EZ-Cytox cell viability assay, L929; conditions: mouse, Cytotoxicity (CC50) L929, EZ-Cytox
[14] = Microsomal stability assay, rat liver microsomes; conditions: percentage of original compound remaining after 30 min incubation, NADPH
[15] = Microsomal stability assay, human liver microsomes; conditions: percentage of original compound remaining after 30 min incubation, NADPH
[16] = Cytotoxicity (CC50) in uninfected Vero cells; conditions: African green monkey
[17] = parameters: method as in PMID 34914868, PMID 34914869; conditions: cited from earlier work
[18] = CC50/IC50 for inhibiting SARS-CoV-2 infection, Vero cells

hERG K+ channel, sequence (Q12809 whole entry): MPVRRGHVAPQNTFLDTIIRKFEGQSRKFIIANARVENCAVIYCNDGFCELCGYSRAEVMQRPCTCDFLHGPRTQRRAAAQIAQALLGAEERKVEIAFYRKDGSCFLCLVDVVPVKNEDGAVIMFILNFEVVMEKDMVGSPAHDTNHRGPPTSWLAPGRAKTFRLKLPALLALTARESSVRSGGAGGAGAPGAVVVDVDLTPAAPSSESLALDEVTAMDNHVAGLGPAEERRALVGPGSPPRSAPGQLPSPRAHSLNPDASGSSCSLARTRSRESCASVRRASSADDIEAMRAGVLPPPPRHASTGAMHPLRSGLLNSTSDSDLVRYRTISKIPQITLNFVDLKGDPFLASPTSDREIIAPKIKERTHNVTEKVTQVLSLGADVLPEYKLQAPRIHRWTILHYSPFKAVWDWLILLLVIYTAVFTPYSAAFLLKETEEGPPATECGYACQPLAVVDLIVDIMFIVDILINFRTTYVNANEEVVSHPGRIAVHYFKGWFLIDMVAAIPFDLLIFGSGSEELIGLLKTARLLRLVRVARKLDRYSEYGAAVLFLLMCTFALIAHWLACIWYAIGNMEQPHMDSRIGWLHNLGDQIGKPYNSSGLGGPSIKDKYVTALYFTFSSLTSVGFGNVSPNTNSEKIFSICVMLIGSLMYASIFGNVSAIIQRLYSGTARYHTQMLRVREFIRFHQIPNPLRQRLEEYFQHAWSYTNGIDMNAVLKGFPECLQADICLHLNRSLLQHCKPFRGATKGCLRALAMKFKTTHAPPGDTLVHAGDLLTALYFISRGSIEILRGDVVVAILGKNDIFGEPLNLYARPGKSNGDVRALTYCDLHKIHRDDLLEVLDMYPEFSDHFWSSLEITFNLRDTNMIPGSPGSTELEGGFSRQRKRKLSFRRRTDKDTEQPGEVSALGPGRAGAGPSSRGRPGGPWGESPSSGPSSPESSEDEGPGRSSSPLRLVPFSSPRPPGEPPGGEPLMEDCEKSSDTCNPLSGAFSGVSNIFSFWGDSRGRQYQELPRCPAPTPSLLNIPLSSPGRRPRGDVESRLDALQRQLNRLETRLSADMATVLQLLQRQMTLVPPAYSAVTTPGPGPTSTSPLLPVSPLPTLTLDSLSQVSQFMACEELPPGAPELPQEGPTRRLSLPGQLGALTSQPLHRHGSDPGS

O=C(C(O)OCc1ccccc1)N(c1cc(Cl)cc(Cl)c1)c1nc2cc(Cl)ccc2c(=O)[nH]1 (stereo not shown)
melting point: 282 to 284 °C

O=c1[nH]c(Nc2cc(Cl)cc(Cl)c2)nc2cc(Cl)ccc12 [Compound 1a, 7-Chloro-2-((3,5-dichlorophenyl)amino)quinazolin-4(3H)-one]
IC50 ([1]; Vero cells): 0.23 µM | AUC24h [2]: 6620 ng·h/mL | Cmax [2]: 870 ng/mL | CC50 at 24 h [3]: > 25 µM | Cytotoxicity [4]: no cytotoxicity

O=c1[nH]c(Nc2cc(F)cc(F)c2)nc2cc(Cl)ccc12 [Compound 1b, 7-Chloro-2-((3,5-difluorophenyl)amino)quinazolin-4(3H)-one]
SI (selectivity index) [1, 18]: 74 | IC50 ([1]; Vero cells): 0.24 µM | CC50 at 24 h [3]: 18 µM

CC(=O)N(c1cc(Cl)cc(Cl)c1)c1nc2cc(Cl)ccc2c(=O)[nH]1 [Compound 2a, N-(7-Dichloro-4-oxo-3,4-dihydroquinazolin-2-yl)-N-(3,5-dichlorophenyl)acetamide]
SI (selectivity index) [1]: 26 | IC50 ([1]; Vero cells): 0.33 µM | melting point: 236 to 238 °C | IC50 [5]: 0.54 µM | IC50 [6]: 15.2 µM | CC50 at 24 h [3]: 9.39 µM | Cmax [7]: 1850 ng/mL | Tmax [7]: 4.67 h | half-life [7]: 4.95 h | AUC(0-t) [7]: 24300 ng·h/mL | CC50 [8]: 7.6 µM | CC50 at 24 h [9]: < 10 µM

CC(=O)N(c1cc(F)cc(F)c1)c1nc2cc(Cl)ccc2c(=O)[nH]1 [Compound 2b, N-(7-Chloro-4-oxo-3,4-dihydroquinazolin-2-yl)-N-(3,5-difluorophenyl)acetamide]
IC50 ([1]; Vero cells): 0.29 µM | CC50 [10]: 14.6 µM | IC50 [5]: 0.99 µM | Clinical signs: animals with liquid feces ([11]; 250 mg/kg group): one animal | Body weight change ([11]; 250 mg/kg, day 4, Dunnett's test): statistically significant reduction | Clinical signs: animals with liquid feces ([11]; 500 mg/kg group): two animals | Body weight change ([11]; 500 mg/kg, days 4 and 8, Dunnett's test): statistically significant reduction | Gross observations of the organs ([11]; 250 and 500 mg/kg): did not reveal changes in any of the organs examined | Mortality ([11]; single oral dose 250 and 500 mg/kg, monitored 15 days): no deaths; also recorded: no mortality; also recorded: no animals died | Approximate lethal dose ([11]; single oral dose, male rats): greater than 500 mg/kg | CC50 at 24 h [12]: 12.6 µM | IC50 [6]: 30 µM | CC50 at 24 h [3]: > 25 µM | Cmax [7]: 5560 ng/mL | Tmax [7]: 4 h | half-life [7]: 1.96 h | AUC(0-t) [7]: 41600 ng·h/mL | CC50 at 24 h [9]: 22.7 µM | CC50 at 24 h [13]: 17.9 µM

CC(=O)N(c1cc(Cl)cc(Cl)c1)c1nc2cccc(O)c2c(=O)[nH]1 [Compound 2c, N-(3,5-Dichlorophenyl)-N-(5-hydroxy-4-oxo-3,4-dihydroquinazolin-2-yl)acetamide]
IC50 ([1]; Vero cells): 0.11 µM | CC50 [10]: 17.1 µM | CC50 at 24 h [12]: 13.7 µM | IC50 [6]: > 50 µM | CC50 at 24 h [3]: > 25 µM | Cmax [7]: 1960 ng/mL | Tmax [7]: 3.33 h | half-life [7]: 6.69 h | AUC(0-t) [7]: 10800 ng·h/mL | Microsomal Stability (%) Rat [14]: 57% | Microsomal Stability (%) Human [15]: 10% | CC50 at 24 h [9]: 59.9 µM | CC50 at 24 h [13]: 42.7 µM

O=c1[nH]c(Nc2cc(Cl)cc(Cl)c2)nc2cccc(O)c12 [Compound 5c, 2-((3,5-Dichlorophenyl)amino)-5-hydroxyquinazolin-4(3H)-one]
SI (selectivity index) [1, 18]: > 168 | IC50 ([1]; Vero cells): 0.15 µM | melting point: > 300 °C | CC50 at 24 h [3]: > 25 µM

CCC(=O)N(c1cc(Cl)cc(Cl)c1)c1nc2cc(Cl)ccc2c(=O)[nH]1 [Compound 6a, N-(7-Chloro-4-oxo-3,4-dihydroquinazolin-2-yl)-N-(3,5-dichlorophenyl)propionamide]
SI (selectivity index) [1, 18]: > 117 | IC50 ([1]; Vero cells): 0.21 µM | melting point: 223 to 225 °C | CC50 at 24 h [3]: > 25 µM

COC(=O)N(c1cc(Cl)cc(Cl)c1)c1nc2cc(Cl)ccc2c(=O)[nH]1 [Compound 6b, Methyl (7-Chloro-4-oxo-3,4-dihydroquinazolin-2-yl)(3,5-dichlorophenyl)carbamate]
IC50 ([1]; Vero cells): 7.05 µM | CC50 at 24 h ([16]; uninfected Vero cells): > 25 µM | melting point: 218 to 220 °C

CN(c1cc(Cl)cc(Cl)c1)c1nc2cc(Cl)ccc2c(=O)[nH]1 [Compound 6c, 7-Chloro-2-((3,5-dichlorophenyl)(methyl)amino)quinazolin-4(3H)-one]
IC50 ([1]; Vero cells): 5.66 µM | melting point: 287 to 289 °C | CC50 at 24 h [3]: > 25 µM

Cc1ccc(S(=O)(=O)N(c2cc(Cl)cc(Cl)c2)c2nc3cc(Cl)ccc3c(=O)[nH]2)cc1 [Compound 6d, N-(7-Chloro-4-oxo-3,4-dihydroquinazolin-2-yl)-N-(3,5-dichlorophenyl)-4-methylben-zenesulfonamide]
SI (selectivity index) [1, 18]: > 44 | IC50 ([1]; Vero cells): 0.57 µM | melting point: 163 to 165 °C | CC50 at 24 h [3]: > 25 µM

O=C(CO)N(c1cc(Cl)cc(Cl)c1)c1nc2cc(Cl)ccc2c(=O)[nH]1 [Compound 8, N-(7-Chloro-4-oxo-3,4-dihydroquinazolin-2-yl)-N-(3,5-dichlorophenyl)-2-hydroxy-acetamide]
SI (selectivity index) [1, 18]: > 10 | IC50 ([1]; Vero cells): 2.57 µM | melting point: 263 to 265 °C | CC50 at 24 h [3]: > 25 µM

CCC(CC)COC(=O)[C@H](C)N[P@](=O)(OC[C@H]1O[C@@](C#N)(c2ccc3c(N)ncnn23)[C@H](O)[C@@H]1O)Oc1ccccc1 [Remdesivir, reference compound]
SI (selectivity index) [1]: > 14 | IC50 ([1]; Vero cells): 3.47 µM | CC50 at 24 h [16]: > 50 µM

O=C1CC2(CCCC2)CC(=O)N1CCCCN1CCN(c2ncccn2)CC1 [buspirone, reference compound]
Microsomal Stability (%) Rat [14]: < 5% | Microsomal Stability (%) Human [15]: < 10%

CC(C)C(=O)OC[C@H]1O[C@@H](n2ccc(NO)nc2=O)[C@H](O)[C@@H]1O [molnupiravir]
Incidence of hospitalization or death at day 29 ([17]; 48 out of 709 patients): 6.8% | Reduction in COVID-19-related hospitalization or death ([17]; versus placebo): 30%
